Activity data for seven compounds are collected here from US20260007680A1, “Compounds and Their Use as PDE4 Activators” (Mironid Limited, priority 2022, published 2026).

The test system of this assay is m-IMCD3 cells. In words: Inhibition of PGE2-stimulated in vitro cyst formation in 3D culture of m-IMCD3 cells (Experiment 4). Format: cell-based, mouse. The note with it: Mus musculus, mIMCD3, 144 h, 10 μM test compound, mean cyst area compared to 100% for (DMSO + PGE2) and 0% for DMSO control, read-out: % Cyst area* after incubation with 10 μM test compound. On the procedure: HEK 293 and MDCK cells (Public Health England, Cell Culture Collections) were maintained in Dulbecco's Modified Eagle's Medium (DMEM) supplemented with 10% (v/v) fetal bovine serum (FBS) (Seralab), 2 mM L-glutamine and 100 U/ml penicillin streptomycin cocktail (ThermoFisher); termed complete media. Clonal HEK 293 cell lines were maintained in complete media supplemented with 0.6 mg/mL G418 (Enzo Life Sciences). Mouse inner medullary collecting duct (m-IMCD3) cells [American Type Culture Collection (ATCC)] were maintained in media consisting of DMEM/Hams F-12 50/50 Mix (DMEM F12; Corning) supplemented with penicillin streptomycin cocktail (100 U/ml) and FBS (10% v/v) (DMEM F12-10% FBS).
The mouse Inner Medullary Collecting Duct cell line (m-IMCD3) spontaneously forms cystic spheroids in 3D culture with a Type 1 collagen/Matrigel extracellular matrix. This process can be stimulated with agents which raise intracellular cAMP and is used as an in vitro model for the formation of cystic structures in the kidneys of patients with ADPKD.
Rat Collagen I (Fisher Scientific) is prepared on ice by neutralising with 1 M NaOH and diluting with a 2×volume of DMEM/F12+10% FBS. This is mixed 1:1.1 with ice cold Matrigel (Corning) for coating plates (coating mix), and 1:0.93 with Matrigel for cell plating (plating mix).
The assay is conducted in the wells of a 96-well plate culture dish using a total volume of 130 μL of collagen/Matrigel/DMEM F12-10% FBS suspension in growth media for each matrix plug per individual well. Initially, 30 μL of collagen/Matrigel/DMEM F12-10% FBS (coating mix) is added into the well of a 96 well plate and the collagen is set to a gel by incubating at 37° C. for at least 15 minutes. A second layer of 100 μL collagen/Matrigel suspension (plating mix) containing m-IMCD3 cells (2.75×10^6 m-IMCD3 cells per 96-well plate) is layered over the coating mix and the collagen/Matrigel/cell mix again set to a gel by incubating at 37° C. Cell cultures are maintained at 37° C. in an atmosphere of 5% CO2, 95% air.
Between 18 and 24 h after plating, test compound(s) as DMSO stock solutions [0.1% (v/v) final DMSO concentration] and PGE2 (100 nM final concentration) in DMEM F12-10% FBS are added in quadruplicate wells per condition. Media, together with the test compound and PGE2 are replenished after 2 or 3 days. After 6 days of culture z stack images of the wells are captured using the Nikon Eclipse Ti2-E microscope. Nikon General Analysis software is used to measure the following parameters in each well: the mean cyst area, the number of cysts, and the total cyst area.
PDE4 long form activators inhibited in vitro cyst formation in m-IMCD3 cells. Data are shown in FIG. 2 and Table 4 as mean cyst area (%), compared to 100% for (DMSO+PGE2) and 0% for DMSO control.

On to `CN1CC2CCC(C1)N2c1cc2ncc(C(=O)NC3CCCC3)cn2n1` [Example 81, N-cyclopentyl-2-(3-methyl-3,8-diazabicyclo[3.2.1]octan-8-yl)pvrazolo[1,5-a]pyrimidine-6-carboxamide], for which the activity at 10 µM is -3%.

In the case of `CCN1CCN(c2cc3ncc(C(=O)N[C@H]4CCc5ccccc54)cn3n2)CC1` [Example 75, (S)—N-(2,3-dihydro-1H-inden-1-yl)-2-(4-ethylpiperazin-1-yl)pyrazolo[1,5-a]pyrimidine-6-carboxamide], the activity at 10 µM was 19%.

As for `CN1CCC(c2nc3cc(C(=O)NC4CCCC4)ccc3o2)CC1` [Example 98, N-cyclopentyl-2-(1-methylpiperidin-4-yl)benzo[d]oxazole-5-carboxamide], the activity at 10 µM was -3%.

Regarding `O=C(N[C@H]1CCOc2ccccc21)c1ccc2nc(N3CCNCC3)nn2c1` [Example 40, (S)—N-(chroman-4-yl)-2-(piperazin-1-yl)-[1,2,4]triazolo[1,5-a]pyridine-6-carboxamide], the activity at 10 µM was 11%.

On to `O=C(NC1CCC(F)(F)CC1)c1ccc2nc(N3C4CCC3CNC4)sc2n1` [Example 116, 2-(3,8-diazabicyclo[3.2.1]octan-8-yl)-N-(4,4-difluorocyclohexyl)thiazolo[5,4-b]pyridine-5-carboxamide], for which the activity at 10 µM is -1%.

In the case of `CN1CCN(c2nc3cc(C(=O)N[C@H]4CCOc5ccccc54)ccn3n2)CC1` [Example 56, (S)—N-(chroman-4-yl)-2-(4-methylpiperazin-1-yl)-[1,2,4]triazolo[1,5-a]pyridine-7-carboxamide], the activity at 10 µM came out at 14%.

`CCN1CCN(c2nc3ccc(C(=O)NC4CCCC4)cc3o2)CC1` [Example 108, N-cyclopentyl-2-(4-ethylpiperazin-1-yl)benzo[d]oxazole-6-carboxamide]: the activity at 10 µM was 24%.
